Results on three compounds are retold here after PMC10037499, “High-Throughput Screen Reveals the Structure–Activity Relationship of the Antimicrobial Lasso Peptide Ubonodin” (ACS Central Science, 2023).

One assay concerns B. cenocepacia AU0756. The method, boiled down: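 Ubonodin variants were tested by broth microdilution following CLSI guidelines against clinical Burkholderia cenocepacia isolates AU0756 and AU24362.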
For assay [1], the system named is RNA polymerase (RNAP) in E. coli MC1061. In words: High-throughput growth-based screen with NGS (enrichment value) for RNA polymerase inhibition. Type of assay: cell-based. Also noted: key to Experimental observation (enrichment observed in the screen): Dropout: Many variants inhibit RNAP so strongly that they cannot be detected by NGS after IPTG induction (referred to as dropout variants). Particulars: Table S4; variants whose MICs were tested. The procedure, abridged:
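E. coli MC1061 carrying ubonodin single/double variant plasmid libraries was grown and induced with 10 µM or 100 µM IPTG; surviving colonies were sequenced by NGS. Enrichment value = log2 of variant frequency post-IPTG over frequency in the cloning transformation library; depletion indicates RNAP inhibition.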

In the next assay the test system is E. coli MC1061. In words: Spot dilution assay of E. coli producing the ubonodin variant from pUboABC. Type of assay: cell-based. As to conditions: variant in pUboABC backbone in E. coli MC1061, induction with 100 μM IPTG, ten-fold serial dilutions, biological duplicates. The method, boiled down:
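E. coli MC1061 carrying the plasmids was grown at 37 °C in LB with 100 μg/mL ampicillin to OD600 0.3, then induced with 100 μM IPTG. Samples taken before induction and at later timepoints were PBS-washed, spotted as ten-fold dilutions on ampicillin/0.2% glucose LB plates, and imaged after 16 h at 37 °C.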

Where two headings read alike, the source gives them in different places. Where a SMILES comes first, the peptide text is derived from it.

Consider `CC[C@H](C)[C@H](NC(=O)[C@H](Cc1c[nH]cn1)NC(=O)[C@H](CCSC)NC(=O)[C@@H]1CCCN1C(=O)[C@@H](NC(=O)[C@H](CC(N)=O)NC(=O)[C@H](Cc1ccccc1)NC(=O)[C@H](Cc1ccc(O)cc1)NC(=O)[C@@H]1CCC(=O)NCC(=O)NCC(=O)N[C@@H](CC(=O)O)C(=O)NCC(=O)N[C@@H](CO)C(=O)N[C@@H]([C@@H](C)CC)C(=O)N[C@@H](C)C(=O)N1)C(C)C)C(=O)NCC(=O)N[C@@H](CC(=O)O)C(=O)N[C@@H](Cc1c[nH]c2ccccc12)C(=O)N[C@@H](CCC(N)=O)C(=O)N[C@H](C(=O)N[C@@H](CCSC)C(=O)N[C@@H](CC(=O)O)C(=O)N[C@@H](CO)C(=O)NCC(=O)N[C@@H](Cc1ccc(O)cc1)C(=O)N[C@@H](Cc1ccc(O)cc1)C(=O)NCC(=O)O)[C@@H](C)CC` [R12V H17G] (HELM PEPTIDE1{G.G.D.G.S.I.A.E.Y.F.N.V.P.M.H.I.G.D.W.Q.I.M.D.S.G.Y.Y.G}$PEPTIDE1,PEPTIDE1,1:R1-8:R3$$$V2.0), for which the “B. cenocepacia AU0756 MIC” value in the assay with B. cenocepacia AU0756 is 0.25 to 0.5 µM. The “Experimental observation (enrichment observed in the screen)” value (shortened to “Experimental observation”) in assay [1] was “Dropout”. For the same compound, in the assay on E. coli MC1061, the “Inhibits Growth” value is on record as “Yes”.

On to `CC[C@H](C)[C@@H]1NC(=O)[C@H](CO)NC(=O)CNC(=O)[C@H](CC(=O)O)NC(=O)CNC(=O)CNC(=O)CC[C@@H](C(=O)N[C@@H](Cc2ccc(O)cc2)C(=O)N[C@@H](Cc2ccccc2)C(=O)N[C@@H](CC(N)=O)C(=O)N[C@@H](CCCNC(=N)N)C(=O)N2CCC[C@H]2C(=O)N[C@@H](CC(N)=O)C(=O)N[C@@H](Cc2c[nH]cn2)C(=O)N[C@H](C(=O)N[C@@H](Cc2c[nH]cn2)C(=O)N[C@@H](CC(=O)O)C(=O)N[C@@H](Cc2c[nH]c3ccccc23)C(=O)N[C@@H](CCC(N)=O)C(=O)N[C@H](C(=O)N[C@@H](CCSC)C(=O)N[C@@H](CC(=O)O)C(=O)N[C@@H](CO)C(=O)NCC(=O)N[C@@H](Cc2ccc(O)cc2)C(=O)N[C@@H](Cc2ccc(O)cc2)C(=O)NCC(=O)O)[C@@H](C)CC)[C@@H](C)CC)NC(=O)[C@H](C)NC1=O` [M14N] (HELM PEPTIDE1{G.G.D.G.S.I.A.E.Y.F.N.R.P.N.H.I.H.D.W.Q.I.M.D.S.G.Y.Y.G}$PEPTIDE1,PEPTIDE1,1:R1-8:R3$$$V2.0), for which the “B. cenocepacia AU0756 MIC” value in the assay on B. cenocepacia AU0756 was in the range of 0.5 to 2 µM. For the same compound, in assay [1], the “Experimental observation” value is -4.7. Further, in the assay with E. coli MC1061, the “Inhibits Growth” value is reported as “Yes”.

For `CC[C@H](C)[C@H](NC(=O)[C@H](Cc1c[nH]cn1)NC(=O)[C@H](CCSC)NC(=O)[C@@H]1CCCN1C(=O)[C@H](CCCNC(=N)N)NC(=O)[C@H](CC(N)=O)NC(=O)[C@H](Cc1ccccc1)NC(=O)[C@H](Cc1ccc(O)cc1)NC(=O)[C@@H]1CCC(=O)NCC(=O)NCC(=O)N[C@@H](CC(=O)O)C(=O)NCC(=O)N[C@@H](CO)C(=O)N[C@@H]([C@@H](C)CC)C(=O)N[C@@H](C)C(=O)N1)C(=O)NCC(=O)N[C@@H](CC(=O)O)C(=O)N[C@@H](Cc1c[nH]c2ccccc12)C(=O)N[C@@H](CCC(N)=O)C(=O)N[C@H](C(=O)N[C@@H](CCSC)C(=O)N[C@@H](CC(=O)O)C(=O)N[C@@H](CO)C(=O)NCC(=O)N[C@@H](Cc1ccc(O)cc1)C(=O)N[C@@H](Cc1ccc(O)cc1)C(=O)NCC(=O)O)[C@@H](C)CC` [H17G] (HELM PEPTIDE1{G.G.D.G.S.I.A.E.Y.F.N.R.P.M.H.I.G.D.W.Q.I.M.D.S.G.Y.Y.G}$PEPTIDE1,PEPTIDE1,1:R1-8:R3$$$V2.0), in the assay on B. cenocepacia AU0756, the “B. cenocepacia AU0756 MIC” value was in the range of 0.125 to 0.25 µM and the MIC was 125 to 250 nM. In the assay on B. cenocepacia AU0756 (broth microdilution, mass basis, strain not named in the sentence (values match AU0756)), this compound displayed an MIC of 0.4 to 0.8 µg/mL. For the same compound, the “Experimental observation” value in assay [1] is -6.5. Further, the “Inhibits Growth” value in the assay on E. coli MC1061 is “Yes”.
